Holding throughout (test): NCI tumour cell line growth inhibition, 48 h
Test [1] deals with SF-295 CNS.
In test [2] the test system is OVCAR-5 ovarian.
Test [3] deals with BT-549 breast.
For test [4], the system named is HOP-62 NSCLC.
The test system of test [5] is HS 578T breast.
The test system of test [6] is NCI-H460 lung.
Test [7] concerns U251 CNS.
For test [8], the system named is HT29 colon.
In test [9] the test system is HCT-15 colon.
Test [10] deals with SR leukemia.

Structures are written as SMILES.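 Growth conditions: 96-well plates. Treatment: test compound, 48 hours, 5 concentrations. Analysis: linear interpolation between bracketing concentrations; unreached endpoints set to highest concentration. GI50 is the concentration that inhibits growth by half. TGI: total growth inhibition.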

As for `O=C(Nc1cccc(-c2ccc(Cl)c(C(F)(F)F)c2)c1)C1CCN(Cc2cccc3cccnc23)CC1`, the GI50 was 1.73 µM in [1]; 1.57 µM in test [2]; 1.65 µM in test [3]; 1.85 µM in test [4]; 2.14 µM in [5]; 1.87 µM in test [6]. Further, the GI50 in test [7] is 1.71 µM; in [8] it was 1.21 µM; in test [9], 1.37 µM; in test [10], 1.52 µM. Moreover, the TGI in test [1] was 3.22 µM; in test [2], 2.92 µM; in [3] it was 3.18 µM; in test [4], 3.74 µM; in test [5] it was 4.94 µM; in test [6] it was 3.55 µM. Further, the TGI was 3.29 µM in test [7], 3.33 µM in [8], 2.79 µM in [9] and 4.49 µM in test [10].
As for `O=C1C=CC(=O)N1c1cccc(N2C(=O)C=CC2=O)c1`, the GI50 in [1] is 21.2 µM; in [2], 1.81 µM; in test [3], 7.51 µM; in [4], 16.8 µM; in [5], 2.17 µM; in [6], 18.3 µM. Further, the GI50 is 11.4 µM in test [7], 2.3 µM in test [8], 1.91 µM in test [9] and 3.07 µM in test [10]. Moreover, the TGI in test [1] amounted to 44.5 µM; in test [2], 4.06 µM; in test [3] it was 20.2 µM; in [4], 33.5 µM; in [5], 5.73 µM; in [6], 38.6 µM. The TGI in test [7] is 25.2 µM; in test [8], 4.94 µM; in [9], 3.93 µM; in test [10], greater than 100 µM.
Consider `Cc1cc2c(C(N)=O)c(N)n(-c3c(C)ccc(O)c3C)c2nc1C`, for which the GI50 in test [1] was 0.871 µM; in test [2], 3.1 µM; in test [3], 3.06 µM; in test [4], 13 µM; in test [5], 1.44 µM; in test [6], 4.77 µM. Also, the GI50 in test [7] is 4.23 µM; in test [8], 0.585 µM; in test [9], 5.51 µM; in [10], 2.47 µM. Besides, the TGI was 35.4 µM in test [1]; 51.9 µM in [2]; 16.7 µM in test [3]; greater than 100 µM in [4]; 7.18 µM in [5]; 31.2 µM in test [6]. The TGI is 34.1 µM in test [7], greater than 100 µM in test [8], 65.4 µM in test [9] and greater than 100 µM in test [10].
Turning to `CC1=C(C(=O)Nc2cc(Cl)c3[nH]ncc3c2)C(c2ccc(C(F)(F)F)cc2)CC(=O)N1` (stereo not given), the GI50 in [1] was 8.6 µM; in [2], greater than 25 µM; in test [3] it was 5.07 µM; in test [4], 5.07 µM; in test [5] it was 0.898 µM; in [6], greater than 25 µM. The GI50 in test [7] was greater than 25 µM; in [8], greater than 25 µM; in test [9], greater than 25 µM; in [10], greater than 7.84 µM. In addition, the TGI in test [1], in test [2], in test [3], in [4], in test [5] and in [6] was greater than 25 µM in each case. Also, the TGI in test [7], in [8], in test [9] and in [10] was greater than 25 µM throughout.
As to `CCn1c(-c2nonc2N)nc2c(C#CC(C)(C)O)ncc(OC[C@H]3CCCNC3)c21`, the GI50 is 0.794 µM in test [1]; 27.6 µM in test [2]; 6.85 µM in [3]; 23.3 µM in test [4]; 2.58 µM in [5]; 10.6 µM in test [6]. Besides, the GI50 in [7] was 0.533 µM; in [8] it was 17.5 µM; in [9], 20.3 µM; in test [10], 12 µM. Further, the TGI came to 22 µM in [1]; 58.4 µM in test [2]; 28.6 µM in [3]; 72.7 µM in test [4]; 59.5 µM in test [5]; 28.5 µM in test [6]. The TGI is 21.9 µM in [7], 51.5 µM in test [8], greater than 100 µM in [9] and 41.8 µM in test [10].
Turning to `CSC(=S)OC1CC(n2cnc3c(NC(=O)c4ccccc4)ncnc32)OC1CO[Si](C)(C)C(C)(C)C` (stereo not given), the TGI was greater than 56.2 µM in test [1]; greater than 56.2 µM in test [2]; greater than 100 µM in [3]; 46 µM in test [4]; greater than 56.2 µM in test [5]; greater than 56.2 µM in test [6]. Also, the TGI in test [7] is 44.4 µM; in [8], greater than 56.2 µM; in [9] it was greater than 56.2 µM; in [10], greater than 50 µM.

Values taken from PubChem BioAssay (NCI).
